Source: publication PMC12040169 (PLOS Biology, 2025)
Where “and” joins values, the source holds several entries; their conditions need not be identical. Equal entries are not always repeated.

Experiments:
HeLa = settings: bulk resorufin, single well, 28.5 h, 10 µM, Bulk resorufin fluorescence
in vitro [1] = settings: human, hela cells, % viability
[2] = system: T1, C. trachomatis L2/434/Bu expressing GFP (CTL2-GFP); assay: microbe, parasite or virus in culture; design: C. trachomatis total inclusion area by high-content imaging, normalised to DMSO; settings: Chlamydia trachomatis, HeLa, 28.5 h; total inclusion area; read-out: % of control remaining
T1 construct: L2/434/Bu GFP intracellular growth in HeLa cells
Procedure, shortened: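 First, bulk GFP and resorufin signals were measured in compound-treated infected cultures. Cells were next fixed and stained with Hoechst. Finally, high-content imaging quantified chlamydial inclusions (area, number) and host nuclei, and MICs were calculated.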

[3] = system: T2, CTL2-GFP (C. trachomatis L2/434/Bu, GFP-expressing); assay: microbe, parasite or virus in culture; design: Intracellular C. trachomatis growth in HeLa cells, bulk GFP fluorescence relative to DMSO; settings: Chlamydia trachomatis, HeLa, 28.5 h; bulk GFP, mean of 2; read-out: % of control remaining
T2 construct: L2/434/Bu, GFP-expressing
Procedure: MICs were calculated as described above.

in vitro [4] = assay: in vitro; design: Viability of infected HeLa host cells, resazurin conversion, bulk resorufin fluorescence relative to DMSO; settings: human, hela cells; bulk resorufin, mean of 2

Row | SMILES | % viability (HeLa) | viability at 28.5 h, 10 µM (in vitro [1]) [%] | further results
1 | CSc1ccc(CN2CCN(Cc3ccc(Br)cc3)CC2)cc1 [CBK027856] | 96.4% |  | viability at 28.5 h, 10 µM (in vitro [1]; bulk resorufin, single well): 79.2%
2 | N#CCCN(C(=O)NC(c1ccccc1)c1ccccc1)C1CCCCC1 [CBK156354] | 104% | 98.7 | 
3 | O=C(O)CCc1nn2c(-c3ccccc3)c(-c3ccccc3)nc2[nH]c1=O [CBK013564] | 94.1% | 86.5 | 
4 | Cc1onc(-c2ccccc2)c1CNC(=O)C1COc2ccccc2O1 (stereo not shown) [CBK144086] | 104% and 80.3% |  | 
5 | Cc1nnc2c(N3CCNCC3)nc3ccccc3n12 [CBK270224] | 75.4% | 89 | 
6 | Cc1ccc2sc(NC(=O)c3ccc(N4C(=O)CCC4=O)cc3)nc2c1C [CBK287587] | 84.7% and 106% |  | 
7 | N#Cc1cccc(-c2ccc3c(c2)COC(C2CCN(C(=O)OCc4ccccc4)CC2)O3)c1 (stereo not shown) [CBK144640] | 93% | 101 | 
8 | CC(C)C(=O)Nc1cc2cccnc2c(-c2cccc(C(F)(F)F)c2)n1 [CBK081266] | 125% and 100% |  | 
9 | COc1ccc(-c2nc(SCc3ccccc3)[nH]c(=O)c2C#N)cc1 [CBK007169] | 107% and 84.8% |  | 
10 | O=c1cc(O)c2ccccc2n1Cc1ccccc1 [CBK218877] | 107% and 84.4% |  | 
11 | COc1ccc(CN2C(=O)[C@H]3CCCN3C(=O)c3ccccc32)cc1 [CBK282851] | 87.8% and 109% |  | 
12 | C[C@H]1CN2CCCC2CN1Cc1ccccc1F (stereo partly shown) [CBK285450] | 103% | 96.5 | 
13 | O=C1NCCN1CCNS(=O)(=O)c1csc2ccccc12 [CBK062602] | 117% and 90% |  | 
14 | Cn1cc(C(NC(=O)c2nc(N)nc3c2CCCC3)[C@H]2C[C@@H](O)C2)cn1 (stereo partly shown) [CBK307535] | 92.2% and 114% |  | 
15 | O=c1[nH]nc2ccc(S(=O)(=O)N3CCCC3)cn12 [CBK288033] | 91.1% | 80.5 | 
16 | O=C(NCCc1ccccc1)[C@H]1C=CCN1C(=O)c1ccccc1F [CBK285471] | 104% | 94 | 
17 | COC(=O)c1ccc(-c2nc3nnc(C)n3[nH]2)cc1 [CBK027508] | 87.7% | 103 | 
18 | Cn1cc(C(=O)N2CCc3[nH]c4ccccc4c3C2)cn1 [CBK281875] | 104% and 83.7% |  | 
19 | C[C@@H]1CN2CCCC2CN1Cc1ccc2ccccc2n1 (stereo partly shown) [CBK285408] | 104% | 101 | 
20 | C=CCNC(=O)[C@H]1C=CCN1S(=O)(=O)c1ccc(F)cc1 [CBK282320] | 89.7% | 83.5 | 
21 | NCCCOc1nc2ccccc2nc1C(F)(F)F [CBK115295] | 109% | 96.8 | 

Row | SMILES | % viability (HeLa) | viability at 28.5 h, 10 µM (in vitro [1]) [%] | further results
22 | C=Cn1ncc(CN2C[C@@H]3CCCN3C[C@H]2CCSC)c1C [CBK285440] | 101% | 99.4 | 
23 | CC(Oc1ccccc1)C(=O)Nc1ccccc1C(=O)O (stereo not shown) [CBK262854] | 109% and 87% |  | 
24 | CC[C@@H](Cn1nc(-c2cccs2)ccc1=O)NC(=O)C1CC1 [CBK282309] | 80.2% and 102% |  | 
25 | CCN(Cc1ccccc1)C(=O)NCc1cccc(C(F)(F)F)c1 [CBK155216] | 96.1% | 110 | 
26 | C[C@@H]1CN2C[C@H](O)CC2CN1Cc1ccc2c3ccccc3n(C)c2c1 (stereo partly shown) [CBK284554] | 102% | 91.5 | 
27 | CCCn1ncc(CN2C[C@@H]3CCCN3C[C@@H]2CCSC)c1C [CBK285426] | 107% | 104 | 
28 | CCN(CC)C(=O)Cn1c([C@@H]2CCCO2)cc2cccnc21 [CBK282283] | 90.4% | 105 | 
29 | NC(=O)CSc1nnc(-c2ccc(Cl)cc2)o1 [CBK068597] | 89.3% | 105 | 
30 | COc1ccc(NC(=O)Nc2ccncc2)c(OC)c1 [CBK266973] | 93.8% | 95.5 | 
31 | c1ccc(CN2CCC(Oc3cncc(OCCN4CCOCC4)n3)C2)cc1 (stereo not shown) [CBK084478] | 107% and 84% |  | 
32 | CCC(=O)N1CCC[C@H](Cn2nc(-c3cccs3)ccc2=O)C1 [CBK283046] | 100% | 95.3 | 
33 | CCCCn1cc(CN2CC3CCCN3C[C@H]2C)c(C)n1 (stereo partly shown) [CBK285433] | 98.7% | 92.9 | 
34 | CCCC(=O)Nc1c(C)nn(C)c1N1CCNCC1 [CBK045924T] | 102% | 87.2 | 
35 | CC(C(=O)Nc1cncc(OC2CCNCC2)n1)c1ccccc1 (stereo not shown) [CBK026733T] | 110% | 99.2 | 
36 | C[C@H]1CN2CCCC2CN1Cc1c(F)cccc1F (stereo partly shown) [CBK285451] | 102% | 89.8 | 
37 | COC(=O)Cn1nnc(-c2ccc(C)cc2)n1 [CBK068195] | 123% and 93.2% |  | 
38 | CC(NC(=O)N(Cc1ccccc1C(F)(F)F)CC(C)(C)CN)c1ccccc1 (stereo not shown) [CBK026834C] | 118% and 97.8% |  | 
39 | C[C@H]1CN2C[C@H](O)CC2CN1Cc1ccc(-c2ccccc2Cl)o1 (stereo partly shown) [CBK285418] | 109% and 85.9% |  | 
40 | COc1cc2c(cc1OC)CN(C(=O)c1ccc3occc3c1)CC2 [CBK122746] | 66.2% and 36.8% |  | 
41 | O=C(Nc1cccnc1)c1cnc2cc(C(F)(F)F)ccc2c1O [CBK107474T] | 88% |  | 
42 | CC(=O)c1c(C)nc(-c2ccc(Cl)c(Cl)c2)n1O [CBK288525] | 116% and 89.2% |  | 

Row | SMILES | % viability (HeLa) | viability at 28.5 h, 10 µM (in vitro [1]) [%] | further results
43 | O=C(O)CC1C(=O)NC(=O)N1CCc1ccccc1 (stereo not shown) [CBK287254] | 111% and 85.3% |  | 
44 | O=C(CSc1nc(O)c(Cc2ccccc2)c(=O)[nH]1)Nc1ccc([N+](=O)[O-])cc1 [CBK265887] | 88% and 113% |  | 
45 | CCOC(=O)c1cnc2c(Cl)cccc2c1NCCN1CCOCC1 [CBK263919] | 88.1% and 109% |  | 
46 | O=C(Nc1cc(-c2ccncc2)c[nH]c1=O)c1ccc(Cl)c(Cl)c1 [CBK115868] | 94.1% and 119% |  | 
47 | O=C1CNC(=O)C2(C/C=C/C[C@H]3COCC[C@H]3N1)CCNCC2 [CBK292151] | 82.1% and 104% |  | 
48 | Nc1cc2cccnc2c(-c2cc(F)cc(F)c2)n1 [CBK061908] | 80.4% and 85.8% and 103% |  | 
49 | COc1ccc(C(C)C)cc1-c1cnc2ncccc2c1N [CBK083686] | 108% and 81.3% |  | 
50 | O=C(c1cccc(C(F)(F)F)c1)N1CCCC2(CCN(C(=O)c3ccoc3)C2)C1 (stereo not shown) [CBK131616] | 116% and 88% |  | 
51 | CC(C)[C@@H](N)Cn1nc(-c2ccc(F)c(F)c2)ccc1=O [CBK282429] | 83% and 112% |  | 
52 | O=C(CC1SC(NC2CC3C=CC2C3)=NC1=O)Nc1ccccc1Cl (stereo not shown) [CBK005795] | 109% and 72.5% |  | 
53 | COc1ccc(Nc2nccc(-c3cccnc3)n2)cc1 [CBK288073] | 70.2% and 104% |  | 
54 | C=CCNC(=O)[C@H]1C=CCN1C(=O)Nc1ccc(F)cc1 [CBK282318] | 82.7% and 110% |  | 
55 | C[C@H]1CN2C[C@H](O)CC2CN1Cc1ccc(C(F)(F)F)cc1 (stereo partly shown) [CBK285147] | 113% and 89.6% |  | 
56 | CN(C(=O)CC1SC(NCC2CCCCC2)=NC1=O)c1ccccc1 (stereo not shown) [CBK067371] | 87.9% and 110% |  | 
57 | CCOC(=O)CN1CCC(Oc2nccnc2OCCN2C(=O)CCC2=O)CC1 [CBK084348] | 120% and 80% |  | 
58 | O=C(O)CCC(=O)Nc1ccc(Br)cn1 [CBK056920] | 89.9% and 110% |  | 
59 | Cc1noc(NS(=O)(=O)c2ccc(N/C=C\C(=O)c3cccnc3)cc2)c1C [CBK264285] |  | 102 | activity at 1 µM [2]: 69.7%; activity at 5 µM [2]: 26.3%; activity at 10 µM [2]: 17.9%; activity at 1 µM [3]: 72.6%; activity at 5 µM [3]: 13.6%; activity at 10 µM [3]: 11.8%; viability at 28.5 h, 1 µM (in vitro [4]): 106%; viability at 28.5 h, 5 µM (in vitro [4]): 103%; viability at 28.5 h, 10 µM (in vitro [4]): 104%
60 | Cc1csc(SC(C)C(=O)N2CCc3ccccc32)n1 (stereo not shown) [CBK305909] |  | 98.8 | activity at 1 µM [2]: 112%; activity at 5 µM [2]: 49.8%; activity at 10 µM [2]: 42.5%; activity at 1 µM [3]: 143%; activity at 5 µM [3]: 149%; activity at 10 µM [3]: 132%; viability at 28.5 h, 1 µM (in vitro [4]): 94.1%; viability at 28.5 h, 5 µM (in vitro [4]): 91.9%; viability at 28.5 h, 10 µM (in vitro [4]): 89.5%
61 | CNc1cc(NS(=O)(=O)c2ccc(N)cc2)nc(NC)n1 [CBK011865] | 93% |  | 
